Patent US6433021B1, “Indane compounds and their pharmaceutical use” (Venantius Limited, priority 1999, dated 2002)

Experiments:
[1] = tested on: arachidonic acid-induced ear oedema; assay: Mouse ear oedema model (arachidonic acid-induced acute inflammation); type: in vivo, Laca mice; details: 300 μg per ear topical in acetone, 30 min before arachidonic acid, 1 hour after arachidonic acid
Procedure: Mouse Ear Oedema Model The mouse ear oedema model was performed using Laca mice (25-35 g), of either sex. The animals were sedated with fentanyl/fluanisone (Hypnorn, Janssen). One ear was treated by the topical application of one of a range of test compounds or dexamethasone (all at 300 μg per ear in acetone). After 30 minutes, oedema was induced by the topical application of arachidonic acid (10 μl at 0.4 g/ml in acetone). The width of each ear was measured, both before and 60 minutes after the induction of oedema, using a micrometer screw gauge. Ear oedema was calculated by comparing the ear width before and after induction of oedema and expressed as percentage normal. Values are expressed as the percentage increase in ear thickness 1 hour after administration of archidonic acid and solvent controls (n=6 except Compound IV, n=4). Acute Inflammation—Mouse Ear

mast cells = assay: Histamine release assay (mast cell stabilisation, compound 48/80-induced histamine release); type: cell-based, Female Wistar rats; details: rat peritoneal mast cells, 2×10^−5 M test compound, stimulated with Compound 48/80, n=5, read-out: % inhibition of histamine Release (±S.E.M.)
Procedure: The compounds were assessed for their ability to stabilise mast cell membranes in vitro. Mast cells treated with the compounds and untreated mast cells were stimulated to release histamine. A reduction in histamine release by the treated cells compared to the untreated cells indicates stabilisation of the membranes.
The buffered salt solution (BSS) was prepared in advance (NaCl 137 mM; KCl 2.7 mM; MgCl2 1.0 mM; CaCl2 0.5 mM; NaH2PO4 0.4 mM; Glucose 5.6 mM; HEPES 10 mM). This was dispensed into test tubes and heated to 37° C. each test tube contained 4.5 ml BSS. The solvent blank was supplemented with 0.5% (v/v) dimethyl sulphoxide (DMSO) or 0.5% (v/v) distilled water (dH2O). […]
To 2 ml of supernatent from each tube was added 0.4 ml of 1 M NaOH and 0.1 ml oPT (1% (w/v) in methanol). […] The presence of the fluorescent product of the reaction was measured using a Shimadzu RF-1501 spectrofluorophotometer set at λex=360 nm, λem=450 nm.
Each drug was tested on at least five animals (n=5). The results were expressed as a percentage of maximum inhibition of compound 48/80 induced-histamine release in the solvent blank sample. […] The basal histamine release in untreated cells was noted, expressed as a percentage of the total histamine content of the cells in suspension.

[2] = first set, solvent control 69.0
[3] = second set, solvent control 79.6

Question: O=C(CC1(C2=Cc3ccccc3C2)Cc2ccccc2C1=O)c1ccccc1 (stereo not shown) [Compound I, 1-phenyl-2-((2′-iidenyl)-indan-2-onyl)ethan-1-one] was tested. Which “Mean % (percentage increase in ear thickness)” value [1, 2] did it give?
Answer: Its value is 49.3%.

Question: How did the “Mean % (percentage increase in ear thickness)” value [1, 3] turn out when OC(CC1(C2=Cc3ccccc3C2)Cc2ccccc2C1O)c1ccccc1 (stereo not shown) [Compound II, 1-phenyl-2-((2′-iindenyl)-indan-2-ol)ethan-1-ol] was run?
Answer: Its value is 17.7%.

Question: And the inhibition at 20 µM (mast cells)?
Answer: Its inhibition at 20 µM is 53.5 ± 2.53%.

Question: Which “Mean % (percentage increase in ear thickness)” value [1, 2] does the source give for C[C@@H]1C[C@H]2[C@@H]3CCC4=CC(=O)C=C[C@]4(C)[C@@]3(F)[C@@H](O)C[C@]2(C)[C@@]1(O)C(=O)CO [Dexamethasone, reference compound] here?
Answer: The value was 41.6%.

Question: And the “Mean % (percentage increase in ear thickness)” value [1, 3]?
Answer: The value was 54.0%.

Question: How did the “Mean % (percentage increase in ear thickness)” value [1, 3] turn out when O=C(CC1(C2=Cc3ccccc3C2)Cc2ccccc2C1O)c1ccccc1 (stereo not shown) [Compound III, 1-phenyl-2-((2′-iidenyl)-indan-2-ol)ethan-1-one] was run?
Answer: Its value is 37.3%.

Question: With O=C1c2ccccc2CC1(CC(O)c1ccccc1)C1=Cc2ccccc2C1 (stereo not shown) [Compound IV, 1-phenyl-2-((2′-iidenyl)-indan-2-one)ethan-1-ol] as the molecule, how does the “Mean % (percentage increase in ear thickness)” value [1, 3] read?
Answer: The value was 13.1%.
